According to paper PMC9007972, “Structural and biochemical evidence that ATP inhibits the cancer biomarker human aldehyde dehydrogenase 1A3” (Communications Biology, 2022):

Legend:
ALDH1A3 [1] = biological target: T1, ALDH1A3 (Homo sapiens, UniProt P47895); test: dehydrogenase activity with hexanal, […] ADP (remaining activity); format: biochemical; parameters: His6-tagged, pET-30 Xa/LIC; settings: read-out: % remaining activity at 0.5 mM
T1 sequence (P47895 2-512): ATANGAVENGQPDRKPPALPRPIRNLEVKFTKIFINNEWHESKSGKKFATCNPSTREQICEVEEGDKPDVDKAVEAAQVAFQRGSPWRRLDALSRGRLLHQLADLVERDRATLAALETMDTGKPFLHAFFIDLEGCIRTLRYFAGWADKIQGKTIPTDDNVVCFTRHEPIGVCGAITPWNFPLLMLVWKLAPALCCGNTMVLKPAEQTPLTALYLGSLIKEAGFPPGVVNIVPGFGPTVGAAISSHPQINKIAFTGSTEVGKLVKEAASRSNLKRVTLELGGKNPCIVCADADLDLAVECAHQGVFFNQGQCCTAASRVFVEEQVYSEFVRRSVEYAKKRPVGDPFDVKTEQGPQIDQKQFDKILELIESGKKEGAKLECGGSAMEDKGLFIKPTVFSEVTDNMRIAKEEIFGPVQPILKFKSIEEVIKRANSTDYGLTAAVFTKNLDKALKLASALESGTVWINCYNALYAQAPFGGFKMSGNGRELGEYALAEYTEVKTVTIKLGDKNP

ALDH1A1 = biological target: T2, ALDH1A1 (Homo sapiens, UniProt P00352); test: fluorimetric dehydrogenase assay with hexanal, […] ATP; format: biochemical; settings: read-out: % remaining activity at 2 mM
T2 construct: His6-tagged, pET-30 Xa/LIC
T2 sequence (P00352 2-501): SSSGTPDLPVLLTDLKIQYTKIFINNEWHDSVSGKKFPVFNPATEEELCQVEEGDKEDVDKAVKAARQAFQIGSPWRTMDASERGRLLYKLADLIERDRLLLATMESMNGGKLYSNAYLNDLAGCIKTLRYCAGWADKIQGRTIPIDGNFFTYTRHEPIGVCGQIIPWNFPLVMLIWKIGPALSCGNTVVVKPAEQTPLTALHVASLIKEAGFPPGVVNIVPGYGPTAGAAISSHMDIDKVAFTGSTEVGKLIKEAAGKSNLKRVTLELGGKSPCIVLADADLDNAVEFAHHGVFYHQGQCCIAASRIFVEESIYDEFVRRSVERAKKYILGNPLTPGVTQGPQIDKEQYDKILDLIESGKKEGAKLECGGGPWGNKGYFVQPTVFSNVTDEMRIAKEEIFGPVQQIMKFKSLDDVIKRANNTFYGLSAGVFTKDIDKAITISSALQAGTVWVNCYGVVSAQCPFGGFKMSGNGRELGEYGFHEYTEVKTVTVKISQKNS

ALDH1A3 [2] = biological target: T1, ALDH1A3; test: biochemical
ALDH1A2 = biological target: T3, ALDH1A2 (Homo sapiens, UniProt O94788); test: fluorimetric dehydrogenase assay with hexanal, […] ATP; format: biochemical; settings: read-out: % remaining activity at 2 mM
T3 construct: His6-tagged, pET-30 Xa/LIC
T3 sequence (O94788 1-518): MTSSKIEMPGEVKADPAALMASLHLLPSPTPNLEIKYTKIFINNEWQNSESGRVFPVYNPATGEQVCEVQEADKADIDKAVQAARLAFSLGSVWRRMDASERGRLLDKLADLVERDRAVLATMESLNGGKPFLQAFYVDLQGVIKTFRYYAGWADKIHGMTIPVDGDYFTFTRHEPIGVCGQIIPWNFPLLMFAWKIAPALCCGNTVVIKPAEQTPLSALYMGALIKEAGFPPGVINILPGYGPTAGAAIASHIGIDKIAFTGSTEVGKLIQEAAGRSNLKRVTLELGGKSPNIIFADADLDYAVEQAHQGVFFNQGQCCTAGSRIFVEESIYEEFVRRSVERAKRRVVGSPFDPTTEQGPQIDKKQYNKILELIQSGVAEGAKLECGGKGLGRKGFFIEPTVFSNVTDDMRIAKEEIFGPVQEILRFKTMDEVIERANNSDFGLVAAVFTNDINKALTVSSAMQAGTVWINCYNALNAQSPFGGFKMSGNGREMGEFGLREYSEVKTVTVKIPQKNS

ALDH3A1 = biological target: T4, ALDH3A1 (Homo sapiens, UniProt P30838); test: as above; format: biochemical; settings: read-out: % remaining activity at 2 mM
T4 construct: His6-tagged, pET-30 Xa/LIC
T4 sequence (P30838 2-453): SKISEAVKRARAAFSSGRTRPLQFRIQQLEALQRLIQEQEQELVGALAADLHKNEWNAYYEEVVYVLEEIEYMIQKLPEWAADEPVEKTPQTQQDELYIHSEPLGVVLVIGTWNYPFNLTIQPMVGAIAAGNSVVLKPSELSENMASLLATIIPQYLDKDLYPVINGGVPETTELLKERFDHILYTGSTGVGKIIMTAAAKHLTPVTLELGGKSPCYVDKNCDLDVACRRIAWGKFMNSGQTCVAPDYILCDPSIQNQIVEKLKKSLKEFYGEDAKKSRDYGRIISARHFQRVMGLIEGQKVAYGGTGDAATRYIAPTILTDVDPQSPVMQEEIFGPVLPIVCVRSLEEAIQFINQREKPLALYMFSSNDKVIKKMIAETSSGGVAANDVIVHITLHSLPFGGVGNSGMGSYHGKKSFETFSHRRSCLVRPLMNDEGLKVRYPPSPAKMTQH

ALDH1A3 [3] = biological target: T1, ALDH1A3; test: X-ray crystal structure ([…] Å); Km from enzyme kinetics without Mg2+; format: biochemical; parameters: His6-tagged, pET-30 Xa/LIC

`Nc1ncnc2c1ncn2[C@@H]1O[C@H](COP(=O)(O)OP(=O)(O)O)[C@@H](O)[C@H]1O` [ADP] gave a remaining activity at 500 µM (ALDH1A3 [1]) of 56 ± 4%.

Compound `Nc1ncnc2c1ncn2[C@@H]1O[C@H](CO[P@@](=O)(O)O[P@](=O)(O)OP(=O)(O)O)[C@@H](O)[C@H]1O` [ATP] has a remaining activity at 2000 µM (ALDH1A1) of 43 ± 1%, a Ki (ALDH1A3 [2]) of 480 ± 80 µM and a remaining activity at 2000 µM (ALDH1A2) of 68 ± 2%. For the same compound, the remaining activity at 2000 µM (ALDH3A1) was 25 ± 1%.

`NC(=O)c1ccc[n+]([C@@H]2O[C@H](COP(=O)([O-])OP(=O)(O)OC[C@H]3O[C@@H](n4cnc5c(N)ncnc54)[C@H](O)[C@@H]3O)[C@@H](O)[C@H]2O)c1` [NAD^+] was tested, and the Km (ALDH1A3 [3]) was 24 ± 2 µM.
